This passage reports EC50 results from patent US11739082B2, “Thiophene compounds, process for synthesis and use thereof” (AHAMMUNE BIOSCIENCES PRIVATE LIMITED, priority 2017, dated 2023).

Assay [1] concerns human A375 cells. Briefly: Recovery of cell viability after tunicamycin-induced stress, MTT assay. The format is cell-based. As to conditions: A-375, tunicamycin 100 ng/ml, 72 h. As for the experimental part: (§1) Methods used for Experimental Data: Mouse B16F10 or human A375 cells were seeded (5000 cells per well) in 96-well plates for 24 h. Cells were then treated in quadruplicate with multiple concentrations of compounds for 6 h. The compounds were dissolved in DMSO at 1000× concentration and then diluted to final concentration directly in cell culture medium. The vehicle control (VC) contains equal amount of DMSO. Cells were then treated with tunicamycin (Tm) (300 ng/ml for B16F10 and 100 ng/ml for A375 cells) and after 72 h of treatment, MTT assay was performed. Cell growth in vehicle control was calculated as 100% and effect of the compounds over tunicamycin treatment was calculated accordingly. EC50 values were calculated using GraphPad Prism 7 software.

The subject of assay [2] is mouse B16F10 cells. Described as above. As to conditions: B16-F10, tunicamycin 300 ng/ml, 72 h. The class given is cell-based. On the procedure:
as §1

Counter-ions that a name gives are not always drawn.

The compound `O=C(Cc1ccc(-c2ccc(Cl)cc2)s1)N1CCOCC1` [AB1151, 2-(5-(4-chlorophenyl)thiophen-2-yl)-1-morpholinoethan-1-one] returned a half-maximal effective concentration (EC50) in assay [1] of 10.6 µM.

For the compound `O=C(Cc1ccc(-c2ccc(Cl)cc2)s1)NCCN1CCOCC1` [AB1062, 2-(5-(4-chlorophenyl)thiophen-2-yl)-N-(2-morpholinoethyl)acetamide hydrochloride], the EC50 was 32.1 µM in assay [2] and 48.5 µM in assay [1]. As to `O=C(Cc1ccc(-c2cc(Cl)cc(Cl)c2)s1)NCCCN1CCOCC1` [AB1162, 2-(5-(3,5-dichlorophenyl)thiophen-2-yl)-N-(3-morpholinopropyl)acetamide], in assay [1], the half-maximal effective concentration (EC50) worked out at 6.02 µM.

Turning to `O=C(Cc1ccc(-c2ccc(Cl)cc2Cl)s1)NCCCN1CCOCC1` [AB1110, 2-(5-(2,4-dichlorophenyl)thiophen-2-yl)-N-(3-morpholinopropyl)acetamide], the concentration for a half-maximal effect (EC50) worked out at 6.24 µM in assay [2] and 62.7 µM in assay [1]. For `O=C(Cc1ccc(-c2cc(Cl)cc(Cl)c2)s1)NCCN1CCOCC1` [AB1114, 2-(5-(3,5-dichlorophenyl)thiophen-2-yl)-N-(2-morpholinoethyl)acetamide], in that order: 12.5 µM and 4.26 µM. The like results for `Cc1cc(C)n(-c2cccc(-c3ccc(CC(=O)NCCN4CCOCC4)s3)c2)n1` [AB1117, 2-(5-(3-(3,5-dimethyl-1H-pyrazol-1-yl)phenyl)thiophen-2-yl)-N-(2-morpholinoethyl) acetamide] were, in that order, 20.7 µM and 26.7 µM. Take `O=C(Cc1ccc(-c2ccc(Cl)cc2Cl)s1)NCCN1CCS(=O)(=O)CC1` [AB1109, 2-(5-(2,4-dichlorophenyl)thiophen-2-yl)-N-(2-(1,1-dioxidothiomorpholino)ethyl)acetamide]: the results for the EC50 in assay [2] and in assay [1] were 6.49 µM and 13.9 µM, respectively. Regarding `O=C(Cc1ccc(-c2cc(Cl)cc(Cl)c2)s1)NCCN1CCS(=O)(=O)CC1` [AB1163, 2-(5-(3,5-dichlorophenyl)thiophen-2-yl)-N-(2-(1,1-dioxidothiomorpholino)ethyl)acetamide], the EC50 in assay [1] was 5.15 µM. With `O=C(Cc1ccc(-c2ccc(F)cc2)s1)NCCN1CCOCC1` [AB1093, 2-(5-(4-fluorophenyl)thiophen-2-yl)-N-(2-morpholinoethyl)acetamide], the EC50 in assay [2] was 36.2 µM; in assay [1] it was 31.2 µM.

On to `O=C(Cc1ccc(-c2ccc(Cl)cc2)s1)N1CCSCC1` [AB1152, 2-(5-(4-chlorophenyl)thiophen-2-yl)-1-thiomorpholinoethan-1-one], for which, in assay [1], the EC50 is 4.86 µM. In the case of `O=C(Cc1ccc(-c2ccc(Cl)cc2)s1)NCCCN1CCOCC1` [AB1118, 2-(5-(4-chlorophenyl)thiophen-2-yl)-N-(3-morpholinopropyl)acetamide], the EC50 came to 19.5 µM in assay [2] and 31.6 µM in assay [1]. As for `O=C(Cc1ccc(-c2ccc(C(F)(F)F)cc2)s1)NCCN1CCOCC1` [AB1116, N-(2-morpholinoethyl)-2-(5-(4-(trifluoromethyl)phenyl)thiophen-2-yl)acetamide], in assay [2], the EC50 was 13.7 µM. This counts as double-digit micromolar. As for `O=C(Cc1ccc(-c2cccc(F)c2)s1)NCCN1CCOCC1` [AB1108, 2-(5-(3-fluorophenyl)thiophen-2-yl)-N-(2-morpholinoethyl)acetamide], the EC50 was found to be 43.7 µM in assay [2] and 34.2 µM in assay [1]. In assay [2], `COc1ccc(-c2ccc(CC(=O)NCCN3CCOCC3)s2)cc1` [AB1115, 2-(5-(4-methoxyphenyl)thiophen-2-yl)-N-(2-morpholinoethyl)acetamide] came in with a concentration giving a half-maximal response (EC50) of 53.4 µM.

Turning to `CCCCNC(=O)Cc1ccc(-c2ccc(Cl)cc2)s1` [AB1010, N-butyl-2-(5-(4-chlorophenyl)thiophen-2-yl)acetamide], the concentration giving a half-maximal response (EC50) in assay [2] came to 6.55 µM; in assay [1] it was 5.22 µM. For the compound `O=C(Cc1ccc(-c2cccc(Cl)c2)s1)NCCN1CCOCC1` [AB1113, 2-(5-(3-chlorophenyl)thiophen-2-yl)-N-(2-morpholinoethyl)acetamide], the EC50 in assay [2] amounted to 46.7 µM; in assay [1], 18.3 µM. In the case of `O=C(Cc1ccc(-c2ccc(Cl)cc2Cl)s1)NCCN1CCOCC1` [AB1099, 2-(5-(2,4-dichlorophenyl)thiophen-2-yl)-N-(2-morpholinoethyl)acetamide], the EC50 in assay [2] amounted to 10 µM; in assay [1] it was 17.3 µM. As for `O=C(Cc1ccc(-c2ccc(Cl)cc2Cl)s1)NCCCN1CCS(=O)(=O)CC1` [AB1119, 2-(5-(2,4-dichlorophenyl)thiophen-2-yl)-N-(3-(1,1-dioxidothiomorpholino)propyl)acetamide], the 50% effective concentration (EC50) in assay [2] came to 9.51 µM; in assay [1], 8.47 µM. As to `O=C(Cc1ccc(-c2ccccc2)s1)NCCN1CCOCC1` [AB1102, N-(2-morpholinoethyl)-2-(5-phenylthiophen-2-yl)acetamide], the EC50 in assay [2] stood at 55.7 µM; in assay [1] it was 71.1 µM. On to `O=C(Cc1ccc(-c2cc(Cl)cc(Cl)c2)s1)NCCCN1CCS(=O)(=O)CC1` [AB1164, 2-(5-(3,5-dichlorophenyl)thiophen-2-yl)-N-(3-(1,1-dioxidothiomorpholino)propyl)acetamide], for which the concentration giving a half-maximal response (EC50) was 9.72 µM in assay [2] and 3.7 µM in assay [1].

A word on the EC50: it is the concentration at which the effect is half-maximal.
